Tests used:
cyclosporine antibody = assay: Dade RxLFlex cyclosporine assay cross-reactivity; format: binding; conditions: 200 ng/mL cyclosporine; metabolite 1000 ng/mL
[1] = tested on: anti-CsA monoclonal antibody; assay: Abbott AxSYM CsA immunoassay (FPIA) cross-reactivity; format: binding, mouse; conditions: 200 ng/mL cyclosporine; metabolite 250 ng/mL
Method: (§1) Antibody. The anti-CsA monoclonal antibody used in the […]® assay is immobilized on Goat Anti-Mouse (GAM) antibody coated magnetic microparticles. The same anti-CsA antibody is used in soluble form in the Abbott TDx and AxSYM® assays (Abbott Laboratories, Abbott Park, Ill.). Soluble mouse anti-CsA antibody is added directly to GAM microparticles and non-covalent binding occurs by antibody-mediated binding. GAM antibody is passively bound to magnetic polystyrene microparticles and then treated with a water-soluble carbodiimide to fix the antibody on the particle. GAM particles can be prepared using ordinary skill in the art.
(§2) FPIA test methods. Abbott TDx Monoclonal and AxSYM® immunoassays were measured on specimens and calibrators using procedures described in the package inserts. Specimens were extracted with a combination of saponin, organic solvent and Zinc sulfate and precipitated protein was centrifuged down. The clear supernatant was tested using assay reagents (Tracer, Antibody and Assay Diluent). However, in Example 4, the different extraction (pretreatment) methods of TDx and AxSYM® were employed, but all results were generated on […]®.
Cross-reactivities for AM9 (500 ng/mL) were 12.6% for AxSYM®, 25% for CEDIA, and 6% for EMIT.

[2] = tested on: anti-CsA monoclonal antibody; assay: Abbott TDx Monoclonal CsA immunoassay (FPIA) cross-reactivity; format: binding, mouse; conditions: 200 ng/mL cyclosporine; metabolite 250 ng/mL
Method: as §1, §2

[3] = times greater than cyclosporine CsA; cited from earlier work

## CC[C@@H]1NC(=O)[C@H]([C@H](O)[C@H](C)C/C=C/CO)N(C)C(=O)[C@H](C(C)C)N(C)C(=O)[C@H](CC(C)C)N(C)C(=O)[C@H](CC(C)(C)O)N(C)C(=O)[C@@H](C)NC(=O)[C@H](C)NC(=O)[C@H](CC(C)C)N(C)C(=O)[C@H](C(C)C)NC(=O)[C@H](CC(C)C)N(C)C(=O)CN(C)C1=O [AM19]
Cyclosporine antibody
  Dade RxLFlex cross-reactivity: 2-3%
[1]
  Abbott AxSYM cross-reactivity: not statistically significant
[2]
  Abbott TDx cross-reactivity: not statistically significant

## C=CC[C@@H]1/C=C(\C)C[C@H](C)C[C@H](OC)[C@H]2O[C@@](O)(C(=O)C(=O)N3CCCC[C@H]3C(=O)O[C@H](/C(C)=C/[C@@H]3CC[C@@H](O)[C@H](OC)C3)[C@H](C)[C@@H](O)CC1=O)[C@H](C)C[C@@H]2OC [Tacrolimus, tacrolimus]
[3]
  in vivo potency relative to cyclosporine CsA: 50-100 times

From patent US8288111B2 (Abbott Laboratories, priority 2007, dated 2012)
